From patent US20080096967A1, “Formulations for Injection of Catecholic Butanes, Including Ndga Compounds, Into Animals” (priority 2005, published 2008)

Assay: M4N solubility in water miscible organic solvents up to 48 hours (RP-HPLC)
Type: physicochemical
Experimental: To prepare M4N samples, 200 μL of 100 mg/mL M4N dissolved in acetone were placed in 1.5 mL polypropylene microtubes. The solvent was allowed to evaporate at room temperature for 48 hours until the samples were completely dry.
The water miscible organic solvent formulations were prepared in 15 mL polypropylene centrifuge tubes. 10 mL of each formulation was prepared. Each solvent was added on the basis of weight using its respective density at 25° C. Following brief mixing, each formulation was filtered through a 0.45 μm surfactant free cellulose acetate (“SFCA”) filter into a fresh 15 mL tube. Formulations were kept at room temperature until ready for use.
At each time point, the samples were centrifuged for 2 minutes at 13,000 rpm to pellet any solid M4N. As noted in Table 25, over half of the formulation conditions examined were able to solubilize M4N to a concentration of greater than 10 mg/Ml.

## COc1ccc(C[C@@H](C)[C@@H](C)Cc2ccc(OC)c(OC)c2)cc1OC [Formulation M4N, meso-1,4-bis(3,4-dimethoxyphenyl)-2,3-dimethylbutane]
14% EtOH, 30% PG, 40% Crem, 10% T80, 6% DMA, 2 hrs at room temperature
  M4N solubility: 9.03 mg/mL
14% EtOH, 30% PG, 40% Crem, 10% T80, 6% DMA, 24 hrs at room temperature
  M4N solubility: 12.08 mg/mL
14% EtOH, 30% PG, 40% Crem, 10% T80, 6% DMA, 48 hrs at room temperature
  M4N solubility: 12.28 mg/mL
14% EtOH, 30% PG, 40% Glyc, 10% T80, 6% DMA, 2 hrs at room temperature
  M4N solubility: 0.85 mg/mL
14% EtOH, 30% PG, 40% Glyc, 10% T80, 6% DMA, 24 hrs at room temperature
  M4N solubility: 1.24 mg/mL
14% EtOH, 30% PG, 40% Glyc, 10% T80, 6% DMA, 48 hrs at room temperature
  M4N solubility: 1.48 mg/mL
14% EtOH, 30% PG, 40% PEG300, 10% T80, 6% DMA, 2 hrs at room temperature
  M4N solubility: 9.40 mg/mL
14% EtOH, 30% PG, 40% PEG300, 10% T80, 6% DMA, 24 hrs at room temperature
  M4N solubility: 10.55 mg/mL
14% EtOH, 30% PG, 40% PEG300, 10% T80, 6% DMA, 48 hrs at room temperature
  M4N solubility: 11.30 mg/mL
18% EtOH, 30% PG, 40% Crem, 10% T80, 2% Benz, 2 hrs at room temperature
  M4N solubility: 8.64 mg/mL
18% EtOH, 30% PG, 40% Crem, 10% T80, 2% Benz, 24 hrs at room temperature
  M4N solubility: 11.78 mg/mL
18% EtOH, 30% PG, 40% Crem, 10% T80, 2% Benz, 48 hrs at room temperature
  M4N solubility: 11.86 mg/mL
18% EtOH, 30% PG, 40% Glyc, 10% T80, 2% Benz, 2 hrs at room temperature
  M4N solubility: 0.58 mg/mL
18% EtOH, 30% PG, 40% Glyc, 10% T80, 2% Benz, 24 hrs at room temperature
  M4N solubility: 1.01 mg/mL
18% EtOH, 30% PG, 40% Glyc, 10% T80, 2% Benz, 48 hrs at room temperature
  M4N solubility: 1.15 mg/mL
18% EtOH, 30% PG, 40% PEG300, 10% T80, 2% Benz, 2 hrs at room temperature
  M4N solubility: 7.84 mg/mL
18% EtOH, 30% PG, 40% PEG300, 10% T80, 2% Benz, 24 hrs at room temperature
  M4N solubility: 9.79 mg/mL
18% EtOH, 30% PG, 40% PEG300, 10% T80, 2% Benz, 48 hrs at room temperature
  M4N solubility: 10.16 mg/mL
24% EtOH, 30% PG, 30% Crem, 10% T80, 6% DMA, 2 hrs at room temperature
  M4N solubility: 10.42 mg/mL
24% EtOH, 30% PG, 30% Crem, 10% T80, 6% DMA, 24 hrs at room temperature
  M4N solubility: 11.25 mg/mL
24% EtOH, 30% PG, 30% Crem, 10% T80, 6% DMA, 48 hrs at room temperature
  M4N solubility: 12.48 mg/mL
24% EtOH, 30% PG, 30% Glyc, 10% T80, 6% DMA, 2 hrs at room temperature
  M4N solubility: 1.63 mg/mL
24% EtOH, 30% PG, 30% Glyc, 10% T80, 6% DMA, 24 hrs at room temperature
  M4N solubility: 2.26 mg/mL
24% EtOH, 30% PG, 30% Glyc, 10% T80, 6% DMA, 48 hrs at room temperature
  M4N solubility: 2.52 mg/mL
24% EtOH, 30% PG, 30% PEG300, 10% T80, 6% DMA, 2 hrs at room temperature
  M4N solubility: 9.91 mg/mL
24% EtOH, 30% PG, 30% PEG300, 10% T80, 6% DMA, 24 hrs at room temperature
  M4N solubility: 10.80 mg/mL
28% EtOH, 30% PG, 30% Crem, 10% T80, 2% Benz, 2 hrs at room temperature
  M4N solubility: 8.98 mg/mL
28% EtOH, 30% PG, 30% Crem, 10% T80, 2% Benz, 24 hrs at room temperature
  M4N solubility: 11.35 mg/mL
28% EtOH, 30% PG, 30% Crem, 10% T80, 2% Benz, 48 hrs at room temperature
  M4N solubility: 11.28 mg/mL
28% EtOH, 30% PG, 30% Glyc, 10% T80, 2% Benz, 2 hrs at room temperature
  M4N solubility: 1.86 mg/mL
28% EtOH, 30% PG, 30% Glyc, 10% T80, 2% Benz, 24 hrs at room temperature
  M4N solubility: 2.22 mg/mL
28% EtOH, 30% PG, 30% Glyc, 10% T80, 2% Benz, 48 hrs at room temperature
  M4N solubility: 2.53 mg/mL
28% EtOH, 30% PG, 30% PEG300, 10% T80, 2% Benz, 2 hrs at room temperature
  M4N solubility: 8.87 mg/mL
28% EtOH, 30% PG, 30% PEG300, 10% T80, 2% Benz, 24 hrs at room temperature
  M4N solubility: 10.19 mg/mL
28% EtOH, 30% PG, 30% PEG300, 10% T80, 2% Benz, 48 hrs at room temperature
  M4N solubility: 10.27 mg/mL
44% EtOH, 50% Crem, 6% DMA, 2 hrs at room temperature
  M4N solubility: 14.85 mg/mL
44% EtOH, 50% Crem, 6% DMA, 24 hrs at room temperature
  M4N solubility: 20.42 mg/mL
44% EtOH, 50% Crem, 6% DMA, 48 hrs at room temperature
  M4N solubility: 21.08 mg/mL
44% EtOH, 50% Glycerol, 6% DMA, 2 hrs at room temperature
  M4N solubility: 1.43 mg/mL
44% EtOH, 50% Glycerol, 6% DMA, 24 hrs at room temperature
  M4N solubility: 1.90 mg/mL
44% EtOH, 50% Glycerol, 6% DMA, 48 hrs at room temperature
  M4N solubility: 2.01 mg/mL
44% EtOH, 50% PEG300, 6% DMA, 2 hrs at room temperature
  M4N solubility: 15.12 mg/mL
44% EtOH, 50% PEG300, 6% DMA, 24 hrs at room temperature
  M4N solubility: 18.61 mg/mL
44% EtOH, 50% PEG300, 6% DMA, 48 hrs at room temperature
  M4N solubility: 18.27 mg/mL
44% EtOH, 50% PG, 6% DMA, 2 hrs at room temperature
  M4N solubility: 4.80 mg/mL
44% EtOH, 50% PG, 6% DMA, 24 hrs at room temperature
  M4N solubility: 5.48 mg/mL
44% EtOH, 50% PG, 6% DMA, 48 hrs at room temperature
  M4N solubility: 2.93 mg/mL
44% EtOH, 50% T80, 6% DMA, 2 hrs at room temperature
  M4N solubility: 17.72 mg/mL
44% EtOH, 50% T80, 6% DMA, 24 hrs at room temperature
  M4N solubility: 22.41 mg/mL
44% EtOH, 50% T80, 6% DMA, 48 hrs at room temperature
  M4N solubility: 23.00 mg/mL
48% EtOH, 50% Crem, 2% Benz, 2 hrs at room temperature
  M4N solubility: 14.02 mg/mL
48% EtOH, 50% Crem, 2% Benz, 24 hrs at room temperature
  M4N solubility: 18.17 mg/mL
48% EtOH, 50% Crem, 2% Benz, 48 hrs at room temperature
  M4N solubility: 18.51 mg/mL
48% EtOH, 50% Glycerol, 2% Benz, 2 hrs at room temperature
  M4N solubility: 1.25 mg/mL
48% EtOH, 50% Glycerol, 2% Benz, 24 hrs at room temperature
  M4N solubility: 1.66 mg/mL
48% EtOH, 50% Glycerol, 2% Benz, 48 hrs at room temperature
  M4N solubility: 1.73 mg/mL
48% EtOH, 50% PEG300, 2% Benz, 2 hrs at room temperature
  M4N solubility: 14.51 mg/mL
48% EtOH, 50% PEG300, 2% Benz, 24 hrs at room temperature
  M4N solubility: 15.78 mg/mL
48% EtOH, 50% PEG300, 2% Benz, 48 hrs at room temperature
  M4N solubility: 16.49 mg/mL
48% EtOH, 50% PG, 2% Benz, 2 hrs at room temperature
  M4N solubility: 4.42 mg/mL
48% EtOH, 50% PG, 2% Benz, 24 hrs at room temperature
  M4N solubility: 4.79 mg/mL
48% EtOH, 50% PG, 2% Benz, 48 hrs at room temperature
  M4N solubility: 4.92 mg/mL
48% EtOH, 50% T80, 2% Benz, 2 hrs at room temperature
  M4N solubility: 16.17 mg/mL
48% EtOH, 50% T80, 2% Benz, 24 hrs at room temperature
  M4N solubility: 19.55 mg/mL
48% EtOH, 50% T80, 2% Benz, 48 hrs at room temperature
  M4N solubility: 19.96 mg/mL
50% EtOH, 50% Crem, 2 hrs at room temperature
  M4N solubility: 13.95 mg/mL
50% EtOH, 50% Crem, 24 hrs at room temperature
  M4N solubility: 17.58 mg/mL
50% EtOH, 50% Crem, 48 hrs at room temperature
  M4N solubility: 18.49 mg/mL
50% EtOH, 50% Glycerol, 2 hrs at room temperature
  M4N solubility: 1.14 mg/mL
50% EtOH, 50% Glycerol, 24 hrs at room temperature
  M4N solubility: 1.53 mg/mL
50% EtOH, 50% Glycerol, 48 hrs at room temperature
  M4N solubility: 1.60 mg/mL
50% EtOH, 50% PEG300, 24 hrs at room temperature
  M4N solubility: 15.07 mg/mL
50% EtOH, 50% PEG300, 48 hrs at room temperature
  M4N solubility: 16.61 mg/mL
50% EtOH, 50% PG, 2 hrs at room temperature
  M4N solubility: 3.64 mg/mL
50% EtOH, 50% PG, 24 hrs at room temperature
  M4N solubility: 4.15 mg/mL
50% EtOH, 50% PG, 48 hrs at room temperature
  M4N solubility: 4.43 mg/mL
50% EtOH, 50% T80, 2 hrs at room temperature
  M4N solubility: 15.91 mg/mL
50% EtOH, 50% T80, 24 hrs at room temperature
  M4N solubility: 19.28 mg/mL
50% PG, 50% Crem, 2 hrs at room temperature
  M4N solubility: 2.94 mg/mL
50% PG, 50% Crem, 24 hrs at room temperature
  M4N solubility: 6.33 mg/mL
50% PG, 50% Crem, 48 hrs at room temperature
  M4N solubility: 7.20 mg/mL
50% PG, 50% Glycerol, 2 hrs at room temperature
  M4N solubility: 0.13 mg/mL
50% PG, 50% Glycerol, 24 hrs at room temperature
  M4N solubility: 0.48 mg/mL
50% PG, 50% Glycerol, 48 hrs at room temperature
  M4N solubility: 0.51 mg/mL
50% PG, 50% PEG300, 2 hrs at room temperature
  M4N solubility: 2.65 mg/mL
50% PG, 50% PEG300, 24 hrs at room temperature
  M4N solubility: 4.88 mg/mL
50% PG, 50% PEG300, 48 hrs at room temperature
  M4N solubility: 5.30 mg/mL
50% PG, 50% T80, 2 hrs at room temperature
  M4N solubility: 5.07 mg/mL
50% PG, 50% T80, 24 hrs at room temperature
  M4N solubility: 8.16 mg/mL
50% PG, 50% T80, 48 hrs at room temperature
  M4N solubility: 8.41 mg/mL
100% Crem, 2 hrs at room temperature
  M4N solubility: 1.19 mg/mL
100% Crem, 24 hrs at room temperature
  M4N solubility: 7.51 mg/mL
100% Crem, 48 hrs at room temperature
  M4N solubility: 12.48 mg/mL
100% EtOH, 2 hrs at room temperature
  M4N solubility: 7.20 mg/mL
100% EtOH, 24 hrs at room temperature
  M4N solubility: 7.22 mg/mL
100% EtOH, 48 hrs at room temperature
  M4N solubility: 7.91 mg/mL
100% Glycerol, 2 hrs at room temperature
  M4N solubility: XXX (not detectable)
100% Glycerol, 24 hrs at room temperature
  M4N solubility: 0.08 mg/mL
100% Glycerol, 48 hrs at room temperature
  M4N solubility: XXX (not detectable)
glycerol, 2 and 48 hours
  M4N solubility: not detectable
